The assay deals with Ba/F3_KRAS^G12D cells (Homo sapiens, UniProt P01116, G12D, cells depend on it). Kind of assay: Ba/F3 KRAS^G12D cell proliferation assay (cell-titer Glo). The following applies: cell growth inhibition, treated with the compounds for 3 days, read-out: BaF3_KRAS^G12D IC50. The class given is cell-based. How it is done: Cells were seeded at a density of 5×10^3 per well into 96-well plate and incubated overnight. Serial diluted compounds were added to each well. Cells were treated with the compounds for 3 days, after which cell-titer Glo reagent (Promega #G7572) was used to assess cell proliferation. The luminescence signal was then collected on Tecan Spark plate reader. […] Cell growth inhibition of IC50 is calculated with the equation of Y=Bottom+(Top−Bottom)/(1+10^((LogIC50−X)*HillSlope))
Sequence of Ba/F3_KRAS^G12D cells (P01116 whole entry G12D): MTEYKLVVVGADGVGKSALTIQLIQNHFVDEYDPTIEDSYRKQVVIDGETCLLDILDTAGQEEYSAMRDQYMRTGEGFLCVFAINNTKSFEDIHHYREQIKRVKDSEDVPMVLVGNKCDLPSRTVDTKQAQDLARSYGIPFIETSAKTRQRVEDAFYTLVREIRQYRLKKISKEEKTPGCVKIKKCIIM

Take `C#Cc1c(F)ccc2cccc(-c3nc(OC(C)C)c4c(N5CC6CCC(C5)N6)nc(OC[C@@H]5C[C@@H](OC(=O)N(C)CCCCCCCCCCCCCCCC)CN5C)nc4c3F)c12` [Compound 246]: the GI50 lay within 500 to 5000 nM.
As for `C#Cc1c(F)ccc2cc(O)cc(-c3nc(OC(C)C)c4c(N5CCNC6(CC6)C5)nc(OC[C@@]56CCCN5C[C@H](F)C6)nc4c3F)c12` [Compound 241], the GI50 is < 500 nM.
Consider `CCOc1nc(-c2cc(O)cc(F)c2C(F)(F)F)c(F)c2nc(OC[C@@]34CCCN3C[C@H](F)C4)nc(N3CC4CCC(C3)N4)c12` [Compound 214], for which the GI50 fell in the range of 500 to 5000 nM.
On to `CCc1c(F)ccc2cc(O)cc(-c3nc(OC)c4c(N5CC6CCC(C5)N6)nc(OC[C@]56CCCN5[C@@H](COC(=O)N(C)C)CC6)nc4c3F)c12` [Compound 215], for which the GI50 was < 500 nM.
Next, `C#Cc1c(F)ccc2cc(O)cc(-c3nc(OC(C)C)c4c(N5CC6CCC(C5)N6)nc(OC[C@]56CCCN5[C@@H](CO)CC6)nc4c3F)c12` [Compound 227]: < 500 nM.
For the compound `Oc1cc(-c2nc(O)c3c(N4CC5CCC(C4)N5)nc(OC[C@@]45CCCN4C[C@H](F)C5)nc3c2F)c2c(Cl)c(F)ccc2c1` [Compound 174], the GI50 was 500 to 5000 nM.
Next, `C#Cc1c(F)ccc2cc(O)cc(-c3nc(OC)c4c(N5CC6CCC(C5)N6)ncnc4c3F)c12` [Compound 161]: < 500 nM.
For the compound `C#Cc1c(F)ccc2cc(O)cc(-c3nc(OC)c4c(N5CC6CCC(C5)N6)nc(OC[C@]56CCCN5[C@@H](COC(=O)N(C)CCCCCCCCCCCCCCCC)CC6)nc4c3F)c12` [Compound 243], the GI50 was < 500 nM.
In the case of `C#Cc1c(F)ccc2cc(O)cc(-c3nc(OCC)c4c(N5CC6CCC(C5)N6)ncnc4c3F)c12` [Compound 221], the GI50 is < 500 nM.
Next, `C#Cc1c(F)ccc2cc(O)cc(-c3nc(OC(C)C)c4c(N5CC6CCC(C5)N6)nc(OC[C@@H]5C[C@H](F)CN5C)nc4c3F)c12` [Compound 204]: < 500 nM; `C#Cc1c(F)ccc2cc(O)cc(-c3nc(C(F)(F)F)c4c(N5CC6CCC(C5)N6)nc(OC[C@@]56CCCN5C[C@H](F)C6)nc4c3F)c12` [Compound 170]: < 500 nM; `C#Cc1c(F)ccc2cc(O)cc(-c3nc(OC)c4c(N5CC6CCC(C5)N6)nc(OC[C@@]56CCCN5[C@@H](COC(=O)N(C)C)CC6)nc4c3F)c12` [Compound 177]: < 500 nM.
As to `Oc1cc(-c2nc(C(F)F)c3c(N4CC5CCC(C4)N5)nc(OC[C@@]45CCCN4C[C@H](F)C5)nc3c2F)c2c(Cl)c(F)ccc2c1` [Compound 167], the GI50 is < 500 nM.
As to `C#Cc1c(F)ccc2cc(O)cc(-c3ncc4c(N5CC6CCC(C5)N6)nc(OC[C@@]56CCCN5C[C@H](F)C6)nc4c3F)c12` [Compound 129], the GI50 was < 500 nM.
Next, `C#Cc1c(F)ccc2cccc(-c3nc(OC(C)C)c4c(N5CC6CCC(C5)N6)nc(OC[C@]56CCCN5[C@@H](CO)CC6)nc4c3F)c12` [Compound 238]: < 500 nM; `C#Cc1c(F)ccc2cccc(-c3nc(OC(C)C)c4c(N5CC6CCC(C5)N6)nc(OC[C@]56CCCN5[C@@H](COC(=O)N(C)C)CC6)nc4c3F)c12` [Compound 222]: < 500 nM; `C#Cc1c(F)ccc2cc(O)cc(-c3nc(O)c4c(N5CC6CCC(C5)N6)nc(OC[C@@H]5CCCN5C)nc4c3F)c12` [Compound 196]: 500 to 5000 nM.
On to `C#Cc1c(F)ccc2cc(O)cc(-c3nc(OC)c4c(N5CC6CCC(C5)N6)nc(OCC5(CN(C)C)CC5)nc4c3F)c12` [Compound 182], for which the GI50 was < 500 nM.
On to `C#Cc1c(F)ccc2cc(O)cc(-c3nc(O)c4c(N5CC6CCC(C5)N6)nc(C(F)F)nc4c3F)c12` [Compound 211], for which the GI50 was in the range of 500 to 5000 nM.
Turning to `C#Cc1c(F)ccc2cc(O)cc(-c3nc(OC)c4c(N5CC6CCC(C5)N6)nc(OC)nc4c3F)c12` [Compound 162], the GI50 was < 500 nM.
For the compound `C#Cc1c(F)ccc2cc(O)cc(-c3nc(OC(C)C)c4c(N5CC6CCC(C5)N6)nc(C)nc4c3F)c12` [Compound 218], the GI50 is < 500 nM.
Take `C#Cc1c(F)ccc2cc(O)cc(-c3nc(OC)c4c(N5CC6CCC(C5)N6)nc(OCC5(CN6CCCC6)CC5)nc4c3F)c12` [Compound 183]: the GI50 is < 500 nM.
As to `C#Cc1c(F)ccc2cc(O)cc(-c3nc(OC)c4c(N5CC6CCC(C5)N6)nc(OCC5(CN6CCN(C(=O)CCCCCCCCCCCCCCC)CC6)CC5)nc4c3F)c12` [Compound 224], the GI50 is < 500 nM.
Next, `C#Cc1c(F)ccc2cc(O)cc(-c3nc(O)c4c(N5CC6CCC(C5)N6)nc(OC[C@]56CCCN5[C@@H](COC(=O)N(C)C)CC6)nc4c3F)c12` [Compound 239]: 500 to 5000 nM; `C#Cc1c(F)ccc2cc(O)cc(-c3nc(OCC)c4c(N5CCNC6(CCC6)C5)nc(OC[C@@]56CCCN5C[C@H](F)C6)nc4c3F)c12` [Compound 172]: < 500 nM; `C#Cc1c(F)ccc2cc(O)cc(-c3nc(OCC)c4c(N5CC6CCC(C5)N6)nc(OCC5(CN6CCOCC6)CC5)nc4c3F)c12` [Compound 234]: < 500 nM.
In the case of `C#Cc1c(F)ccc2cc(N)cc(-c3nc(OC)c4c(N5CC6CCC(C5)N6)nc(OC[C@@H]5C[C@H](F)CN5C)nc4c3F)c12` [Compound 209], the GI50 is < 500 nM.
With `CNC(=O)COc1nc(-c2cc(O)cc3ccccc23)c(F)c2nc(OC[C@@]34CCCN3C[C@H](F)C4)nc(N3CC4CCC(C3)N4)c12` [Compound 145], the GI50 lay in the range of 500 to 5000 nM.
Take `C#Cc1c(F)ccc2cc(O)cc(-c3nc(OC)c4c(N5CC6CCC(C5)N6)nc(OC[C@@]56CCCN5[C@H](COC(=O)N(C)C)CC6)nc4c3F)c12` [Compound 175]: the GI50 was < 500 nM.
Consider `C#Cc1c(F)ccc2cc(O)cc(-c3nc(OC(C)C)c4c(N5CC6CCC(C5)N6)nc(OC[C@@H]5C[C@@H](OC(=O)N(C)C)CN5C)nc4c3F)c12` [Compound 235], for which the GI50 is < 500 nM.
Consider `C#Cc1c(F)ccc2cc(O)cc(-c3nc(O)c4c(N5CC6CCC(C5)N6)nc(NC)nc4c3F)c12` [Compound 187], for which the GI50 fell in the range of 500 to 5000 nM.
On to `C#Cc1c(F)ccc2cc(O)cc(-c3nc(OC(C)C)c4c(N5CC6CCC(C5)N6)nc(OCC5(CN6CCN(C(=O)OC)CC6)CC5)nc4c3F)c12` [Compound 232], for which the GI50 was < 500 nM.
Next, `C#Cc1c(F)ccc2cc(O)cc(-c3nc(OC(C)C)c4c(N5CC6CCC(C5)N6)nc(OCCOC)nc4c3F)c12` [Compound 192]: < 500 nM.
Take `CCc1c(F)ccc2cc(O)cc(-c3ncc4c(N5CC6CCC(C5)N6)nc(OC[C@@]56CCCN5C[C@H](F)C6)nc4c3F)c12` [Compound 140]: the GI50 was < 500 nM.
Turning to `CCOc1nc(-c2cccc3ccc(F)c(CC)c23)c(F)c2nc(OC[C@]34CCCN3[C@@H](COC(=O)N(C)C)CC4)nc(N3CC4CCC(C3)N4)c12` [Compound 237], the GI50 is < 500 nM.
In the case of `C#Cc1c(F)ccc2cccc(-c3nc(OCC)c4c(N5CC6CCC(C5)N6)nc(OC[C@]56CCCN5[C@@H](COC(=O)N(C)C)CC6)nc4c3F)c12` [Compound 236], the GI50 was < 500 nM.
Regarding `C#Cc1c(F)ccc2cc(O)cc(-c3nc(OC(C)C)c4c(N5CCNC(CF)C5)nc(OC[C@@]56CCCN5C[C@H](F)C6)nc4c3F)c12` (some centres unmarked) [Compound 242], the GI50 was < 500 nM.
For the compound `C#Cc1c(F)ccc2cc(O)cc(-c3nc(OC(C)C)c4c(N5CC6CCC(C5)N6)nc(OC[C@]56CCCN5[C@H](COC(=O)N(C)C)CC6)nc4c3F)c12` [Compound 226], the GI50 is < 500 nM.
On to `C#Cc1c(F)ccc2cc(O)cc(-c3nc(OCC(F)(F)F)c4c(N5CC6CCC(C5)N6)ncnc4c3F)c12` [Compound 153], for which the GI50 lay within 500 to 5000 nM.
For the compound `C#Cc1c(F)ccc2cc(O)cc(-c3nc(OC(C)C)c4c(N5CC6CCC(C5)N6)nc(OCC5(CN6CCOCC6)CC5)nc4c3F)c12` [Compound 229], the GI50 was < 500 nM.
`C#Cc1c(F)ccc2cc(N)cc(-c3nc(OC(C)C)c4c(N5CC6CCC(C5)N6)nc(OC[C@@H]5C[C@H](F)CN5C)nc4c3F)c12` [Compound 207]: the GI50 was < 500 nM.
For `C#Cc1c(F)ccc2cc(O)cc(-c3c(F)c4nc(OC[C@@]56CCCN5C[C@H](F)C6)nc(N5CC6CCC(C5)N6)c4c4ncnn34)c12` (single isomer, unassigned) [Compound 155], the GI50 was < 500 nM.
Next, `C#Cc1c(F)ccc2cc(N)cc(-c3nc(OC(C)C)c4c(N5CC6CCC(C5)N6)nc(OC[C@@H]5C[C@@H](F)CN5C)nc4c3F)c12` [Compound 206]: < 500 nM.
On to `Cc1cc(-c2nc(OC(C)C)c3c(N4CC5CCC(C4)N5)nc(OC[C@@]45CCCN4C[C@H](F)C5)nc3c2F)c(C(F)(F)F)c(N)n1` [Compound 199], for which the GI50 is < 500 nM.
The value for `Cc1nc(N)cc(-c2nc(OC(C)C)c3c(N4CC5CCC(C4)N5)nc(OC[C@@]45CCCN4C[C@H](F)C5)nc3c2F)c1C(F)(F)F` [Compound 198] was < 500 nM.
Next, `CCc1c(F)ccc2cccc(-c3nc(OC(C)C)c4c(N5CC6CCC(C5)N6)nc(OC[C@]56CCCN5[C@@H](COC(=O)N(C)C)CC6)nc4c3F)c12` [Compound 223]: < 500 nM; `C#Cc1c(F)ccc2cc(O)cc(-c3nc(OC(C)C)c4c(N5CCNCC(F)(F)C5)nc(OC[C@@]56CCCN5C[C@H](F)C6)nc4c3F)c12` [Compound 219]: < 500 nM.
With `C#Cc1c(F)ccc2cccc(-c3nc(OC)c4c(N5CCNCC(F)(F)C5)nc(OC[C@]56CCCN5[C@@H](COC(=O)N(C)C)CC6)nc4c3F)c12` [Compound 247], the GI50 was in the range of 500 to 5000 nM.
For the compound `C#Cc1c(F)ccc2cc(O)cc(-c3nc(OC)c4c(N5CC6CCC(C5)N6)nc(OC[C@]56CCCN5[C@H](COC(=O)N(C)C)CC6)nc4c3F)c12` [Compound 178], the GI50 is < 500 nM.
Turning to `C#Cc1c(F)ccc2cc(O)cc(-c3nc(OC(C)C)c4c(N5CC6CCC(C5)N6)nc(OC[C@]56CCCN5[C@@H](COC(=O)N(C)C)CC6)nc4c3F)c12` [Compound 225], the GI50 is < 500 nM.

Values taken from US20230357233A1, “HETEROARYL COMPOUNDS, PREPARATION METHODS AND USES THEREOF” (INVENTISBIO CO., LTD., priority 2020, published 2023).
